Activity calls are given as the source filed them.
molecular target: Adenylate kinase 2, mitochondrial (Homo sapiens, UniProt P54819)
Further: in the data inactive means no Kd found up to 30 µM.

SMILES | Kd
CCn1c(-c2nonc2N)nc2c(C#CC(C)(C)O)ncc(OC[C@H]3CCCNC3)c21 [GSK-690693] | > 30 µM (inactive)
COc1cc2nccc(Oc3ccc(NC(=O)NC4CC4)c(Cl)c3)c2cc1C(N)=O [LENVATINIB] | > 30 µM (inactive)
Cc1cn(-c2cc(NC(=O)c3ccc(C)c(Nc4nccc(-c5cccnc5)n4)c3)cc(C(F)(F)F)c2)cn1 [NILOTINIB] | > 30 µM (inactive)
CN(C)C(=O)c1cc2cnc(Nc3ccc(N4CCNCC4)cn3)nc2n1C1CCCC1 [RIBOCICLIB] | > 30 µM (inactive)
C[C@@H](c1ccc2nccn2c1)n1nnc2ncc(-c3cnn(C)c3)nc21 [SAVOLITINIB] | > 30 µM (inactive)
O=C(Nc1cccc(Cl)c1)Nc1ncc(CCNc2ncnc3ccsc23)s1 [SNS-314] | > 30 µM (inactive)
Nc1nc(N)c2nc(-c3cccc(O)c3)c(-c3cccc(O)c3)nc2n1 [TG100-115] | > 30 µM (inactive)
COc1cc2nccc(Oc3ccc(NC(=O)Nc4cc(C)on4)c(Cl)c3)c2cc1OC [TIVOZANIB] | > 30 µM (inactive)
CN1N=C(N)c2cn([C@@H]3O[C@H](COP(=O)(O)O)[C@@H](O)[C@H]3O)c3ncnc1c23 [TRICIRIBINE PHOSPHATE] | > 30 µM (inactive)

molecular target: T1, Serine/threonine-protein kinase A-Raf (Homo sapiens, UniProt P10398)
T1 sequence (P10398 whole entry): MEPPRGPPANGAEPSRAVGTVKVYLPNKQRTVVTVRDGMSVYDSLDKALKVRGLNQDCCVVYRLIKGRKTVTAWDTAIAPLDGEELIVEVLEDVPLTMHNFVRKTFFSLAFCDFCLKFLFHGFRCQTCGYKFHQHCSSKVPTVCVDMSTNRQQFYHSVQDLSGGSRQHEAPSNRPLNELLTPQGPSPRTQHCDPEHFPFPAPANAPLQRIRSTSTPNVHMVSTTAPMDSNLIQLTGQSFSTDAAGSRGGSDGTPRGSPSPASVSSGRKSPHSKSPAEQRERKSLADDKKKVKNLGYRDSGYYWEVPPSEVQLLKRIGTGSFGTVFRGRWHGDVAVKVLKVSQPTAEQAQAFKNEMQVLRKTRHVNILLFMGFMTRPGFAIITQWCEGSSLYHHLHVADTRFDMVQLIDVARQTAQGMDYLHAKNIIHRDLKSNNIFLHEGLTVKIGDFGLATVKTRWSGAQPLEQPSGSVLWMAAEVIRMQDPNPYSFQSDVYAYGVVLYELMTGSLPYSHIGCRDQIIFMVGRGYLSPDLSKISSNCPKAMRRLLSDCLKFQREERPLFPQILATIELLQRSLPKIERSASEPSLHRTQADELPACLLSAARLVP

SMILES | Kd
C[C@@H](Nc1cc(F)cc(F)c1)c1cc(C(=O)N(C)C)cc2c(=O)cc(N3CCOCC3)oc12 [AZD-8186] | > 30 µM (inactive)
CCn1c(-c2nonc2N)nc2c(C#CC(C)(C)O)ncc(OC[C@H]3CCCNC3)c21 [GSK-690693] | > 30 µM (inactive)
O=C1NC(=O)/C(=C/c2ccc3nccc(-c4ccncc4)c3c2)S1 [GSK-1059615] | > 30 µM (inactive)
COc1cc2nccc(Oc3ccc(NC(=O)NC4CC4)c(Cl)c3)c2cc1C(N)=O [LENVATINIB] | > 30 µM (inactive)
Cc1cn(-c2cc(NC(=O)c3ccc(C)c(Nc4nccc(-c5cccnc5)n4)c3)cc(C(F)(F)F)c2)cn1 [NILOTINIB] | > 30 µM (inactive)
CN(C)C(=O)c1cc2cnc(Nc3ccc(N4CCNCC4)cn3)nc2n1C1CCCC1 [RIBOCICLIB] | > 30 µM (inactive)
C[C@@H](c1ccc2nccn2c1)n1nnc2ncc(-c3cnn(C)c3)nc21 [SAVOLITINIB] | > 30 µM (inactive)
O=C(Nc1cccc(Cl)c1)Nc1ncc(CCNc2ncnc3ccsc23)s1 [SNS-314] | > 30 µM (inactive)
Nc1nc(N)c2nc(-c3cccc(O)c3)c(-c3cccc(O)c3)nc2n1 [TG100-115] | > 30 µM (inactive)

molecular target: Cyclin-dependent kinase 1 (Homo sapiens, UniProt P06493)
Sequence (P06493 whole entry): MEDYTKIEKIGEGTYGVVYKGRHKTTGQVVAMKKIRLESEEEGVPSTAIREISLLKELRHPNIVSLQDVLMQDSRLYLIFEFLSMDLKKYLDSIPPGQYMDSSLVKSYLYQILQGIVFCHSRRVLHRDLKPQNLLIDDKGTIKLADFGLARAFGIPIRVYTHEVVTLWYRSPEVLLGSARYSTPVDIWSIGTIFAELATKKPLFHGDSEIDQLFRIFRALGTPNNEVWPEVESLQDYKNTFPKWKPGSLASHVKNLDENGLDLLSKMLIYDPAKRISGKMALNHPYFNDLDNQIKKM

SMILES | Kd
C[C@@H](Nc1cc(F)cc(F)c1)c1cc(C(=O)N(C)C)cc2c(=O)cc(N3CCOCC3)oc12 [AZD-8186] | > 30 µM (inactive)
CCn1c(-c2nonc2N)nc2c(C#CC(C)(C)O)ncc(OC[C@H]3CCCNC3)c21 [GSK-690693] | > 30 µM (inactive)
O=C1NC(=O)/C(=C/c2ccc3nccc(-c4ccncc4)c3c2)S1 [GSK-1059615] | > 30 µM (inactive)
COc1cc2nccc(Oc3ccc(NC(=O)NC4CC4)c(Cl)c3)c2cc1C(N)=O [LENVATINIB] | > 30 µM (inactive)
Cc1cn(-c2cc(NC(=O)c3ccc(C)c(Nc4nccc(-c5cccnc5)n4)c3)cc(C(F)(F)F)c2)cn1 [NILOTINIB] | > 30 µM (inactive)
C[C@@H](c1ccc2nccn2c1)n1nnc2ncc(-c3cnn(C)c3)nc21 [SAVOLITINIB] | > 30 µM (inactive)
Nc1nc(N)c2nc(-c3cccc(O)c3)c(-c3cccc(O)c3)nc2n1 [TG100-115] | > 30 µM (inactive)
COc1cc2nccc(Oc3ccc(NC(=O)Nc4cc(C)on4)c(Cl)c3)c2cc1OC [TIVOZANIB] | > 30 µM (inactive)
CN1N=C(N)c2cn([C@@H]3O[C@H](COP(=O)(O)O)[C@@H](O)[C@H]3O)c3ncnc1c23 [TRICIRIBINE PHOSPHATE] | > 30 µM (inactive)

molecular target: T2, Mitogen-activated protein kinase kinase kinase 6 (Homo sapiens, UniProt O95382)
T2 sequence (O95382 whole entry): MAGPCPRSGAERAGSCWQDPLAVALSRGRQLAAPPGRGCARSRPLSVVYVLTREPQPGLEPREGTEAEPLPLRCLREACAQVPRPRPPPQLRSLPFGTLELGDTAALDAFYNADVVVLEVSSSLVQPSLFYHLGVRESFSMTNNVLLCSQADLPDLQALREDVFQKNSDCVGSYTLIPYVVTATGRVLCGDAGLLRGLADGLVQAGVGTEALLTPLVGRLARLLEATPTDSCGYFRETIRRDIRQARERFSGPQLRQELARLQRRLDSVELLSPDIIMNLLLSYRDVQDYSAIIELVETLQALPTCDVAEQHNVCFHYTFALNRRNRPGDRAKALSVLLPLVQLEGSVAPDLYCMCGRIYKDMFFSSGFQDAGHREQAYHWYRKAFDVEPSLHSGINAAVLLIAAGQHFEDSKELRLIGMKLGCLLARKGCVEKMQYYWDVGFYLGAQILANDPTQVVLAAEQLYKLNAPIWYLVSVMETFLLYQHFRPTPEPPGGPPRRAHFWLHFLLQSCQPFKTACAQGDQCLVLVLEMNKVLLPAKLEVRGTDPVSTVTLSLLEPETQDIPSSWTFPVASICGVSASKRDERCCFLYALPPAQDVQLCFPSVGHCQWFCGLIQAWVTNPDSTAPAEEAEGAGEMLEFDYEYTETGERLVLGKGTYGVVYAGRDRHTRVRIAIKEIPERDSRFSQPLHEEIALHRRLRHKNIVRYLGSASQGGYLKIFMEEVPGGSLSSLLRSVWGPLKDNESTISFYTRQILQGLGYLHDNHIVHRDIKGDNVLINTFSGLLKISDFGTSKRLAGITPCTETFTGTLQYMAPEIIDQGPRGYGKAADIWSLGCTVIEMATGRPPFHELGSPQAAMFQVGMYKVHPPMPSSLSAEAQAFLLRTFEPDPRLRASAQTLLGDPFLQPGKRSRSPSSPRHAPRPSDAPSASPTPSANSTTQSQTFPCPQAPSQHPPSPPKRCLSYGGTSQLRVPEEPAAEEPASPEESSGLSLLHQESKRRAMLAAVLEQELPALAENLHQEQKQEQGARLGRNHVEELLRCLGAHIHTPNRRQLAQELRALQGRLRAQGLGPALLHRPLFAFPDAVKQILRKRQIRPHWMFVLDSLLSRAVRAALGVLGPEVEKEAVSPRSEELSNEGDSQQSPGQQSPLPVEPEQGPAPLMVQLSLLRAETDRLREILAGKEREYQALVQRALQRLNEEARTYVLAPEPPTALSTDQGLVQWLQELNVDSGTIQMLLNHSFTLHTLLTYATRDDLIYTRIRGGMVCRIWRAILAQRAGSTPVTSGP

SMILES | Kd
C[C@@H](Nc1cc(F)cc(F)c1)c1cc(C(=O)N(C)C)cc2c(=O)cc(N3CCOCC3)oc12 [AZD-8186] | > 30 µM (inactive)
O=C1NC(=O)/C(=C/c2ccc3nccc(-c4ccncc4)c3c2)S1 [GSK-1059615] | > 30 µM (inactive)
COc1cc2nccc(Oc3ccc(NC(=O)NC4CC4)c(Cl)c3)c2cc1C(N)=O [LENVATINIB] | 1.57 µM
CN(C)C(=O)c1cc2cnc(Nc3ccc(N4CCNCC4)cn3)nc2n1C1CCCC1 [RIBOCICLIB] | > 30 µM (inactive)
C[C@@H](c1ccc2nccn2c1)n1nnc2ncc(-c3cnn(C)c3)nc21 [SAVOLITINIB] | > 30 µM (inactive)
O=C(Nc1cccc(Cl)c1)Nc1ncc(CCNc2ncnc3ccsc23)s1 [SNS-314] | > 30 µM (inactive)
COc1cc2nccc(Oc3ccc(NC(=O)Nc4cc(C)on4)c(Cl)c3)c2cc1OC [TIVOZANIB] | > 30 µM (inactive)
CN1N=C(N)c2cn([C@@H]3O[C@H](COP(=O)(O)O)[C@@H](O)[C@H]3O)c3ncnc1c23 [TRICIRIBINE PHOSPHATE] | > 30 µM (inactive)

molecular target: T3, Serine/threonine-protein kinase PLK4 (Homo sapiens, UniProt O00444)
T3 sequence (O00444 whole entry): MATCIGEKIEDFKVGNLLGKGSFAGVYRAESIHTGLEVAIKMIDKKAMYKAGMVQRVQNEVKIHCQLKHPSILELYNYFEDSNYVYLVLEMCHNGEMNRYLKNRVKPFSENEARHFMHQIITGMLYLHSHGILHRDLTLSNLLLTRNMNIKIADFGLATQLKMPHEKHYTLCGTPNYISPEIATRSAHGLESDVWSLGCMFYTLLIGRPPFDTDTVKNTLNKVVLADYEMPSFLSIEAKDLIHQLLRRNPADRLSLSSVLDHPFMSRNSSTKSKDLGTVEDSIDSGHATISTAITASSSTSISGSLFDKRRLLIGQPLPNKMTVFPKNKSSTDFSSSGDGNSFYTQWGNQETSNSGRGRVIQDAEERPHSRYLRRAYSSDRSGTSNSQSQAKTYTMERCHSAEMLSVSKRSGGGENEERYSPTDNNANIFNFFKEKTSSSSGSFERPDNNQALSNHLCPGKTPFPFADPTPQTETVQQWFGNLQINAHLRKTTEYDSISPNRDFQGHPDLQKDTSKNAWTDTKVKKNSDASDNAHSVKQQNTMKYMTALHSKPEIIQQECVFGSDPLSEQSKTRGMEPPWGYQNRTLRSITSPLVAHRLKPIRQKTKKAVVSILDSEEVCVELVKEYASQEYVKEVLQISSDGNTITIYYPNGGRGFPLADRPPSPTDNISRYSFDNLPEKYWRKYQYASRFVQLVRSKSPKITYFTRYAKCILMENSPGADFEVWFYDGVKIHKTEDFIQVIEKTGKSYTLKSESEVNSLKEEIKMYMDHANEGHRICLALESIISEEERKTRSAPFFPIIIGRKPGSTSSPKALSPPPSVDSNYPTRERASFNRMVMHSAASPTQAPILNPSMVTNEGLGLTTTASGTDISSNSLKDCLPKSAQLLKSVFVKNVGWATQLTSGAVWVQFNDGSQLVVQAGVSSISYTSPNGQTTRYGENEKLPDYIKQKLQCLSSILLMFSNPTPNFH

SMILES | Kd
C[C@@H](Nc1cc(F)cc(F)c1)c1cc(C(=O)N(C)C)cc2c(=O)cc(N3CCOCC3)oc12 [AZD-8186] | > 30 µM (inactive)
O=C1NC(=O)/C(=C/c2ccc3nccc(-c4ccncc4)c3c2)S1 [GSK-1059615] | > 30 µM (inactive)
CN(C)C(=O)c1cc2cnc(Nc3ccc(N4CCNCC4)cn3)nc2n1C1CCCC1 [RIBOCICLIB] | > 30 µM (inactive)
COc1cc2nccc(Oc3ccc(NC(=O)Nc4cc(C)on4)c(Cl)c3)c2cc1OC [TIVOZANIB] | > 30 µM (inactive)
CN1N=C(N)c2cn([C@@H]3O[C@H](COP(=O)(O)O)[C@@H](O)[C@H]3O)c3ncnc1c23 [TRICIRIBINE PHOSPHATE] | > 30 µM (inactive)

molecular target: Receptor-interacting serine/threonine-protein kinase 3 (Homo sapiens, UniProt Q9Y572)
Sequence (Q9Y572 whole entry): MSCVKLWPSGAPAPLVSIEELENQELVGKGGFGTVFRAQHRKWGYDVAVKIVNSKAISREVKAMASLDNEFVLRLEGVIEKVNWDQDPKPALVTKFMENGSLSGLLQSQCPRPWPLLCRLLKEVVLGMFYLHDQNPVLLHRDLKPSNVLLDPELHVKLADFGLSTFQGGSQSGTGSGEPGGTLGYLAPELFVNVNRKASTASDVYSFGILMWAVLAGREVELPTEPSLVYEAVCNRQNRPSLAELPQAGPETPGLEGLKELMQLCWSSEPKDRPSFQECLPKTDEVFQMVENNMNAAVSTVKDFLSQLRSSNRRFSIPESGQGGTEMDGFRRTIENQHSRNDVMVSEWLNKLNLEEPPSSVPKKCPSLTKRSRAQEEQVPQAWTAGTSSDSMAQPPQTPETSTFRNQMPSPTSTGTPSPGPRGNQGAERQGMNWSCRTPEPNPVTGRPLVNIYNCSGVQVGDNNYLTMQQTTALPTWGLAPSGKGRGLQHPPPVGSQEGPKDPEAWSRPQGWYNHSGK

SMILES | Kd
C[C@@H](Nc1cc(F)cc(F)c1)c1cc(C(=O)N(C)C)cc2c(=O)cc(N3CCOCC3)oc12 [AZD-8186] | > 30 µM (inactive)
CCn1c(-c2nonc2N)nc2c(C#CC(C)(C)O)ncc(OC[C@H]3CCCNC3)c21 [GSK-690693] | > 30 µM (inactive)
O=C1NC(=O)/C(=C/c2ccc3nccc(-c4ccncc4)c3c2)S1 [GSK-1059615] | > 30 µM (inactive)
COc1cc2nccc(Oc3ccc(NC(=O)NC4CC4)c(Cl)c3)c2cc1C(N)=O [LENVATINIB] | 0.316 µM (active)
Cc1cn(-c2cc(NC(=O)c3ccc(C)c(Nc4nccc(-c5cccnc5)n4)c3)cc(C(F)(F)F)c2)cn1 [NILOTINIB] | 1.27 µM (active)
CN(C)C(=O)c1cc2cnc(Nc3ccc(N4CCNCC4)cn3)nc2n1C1CCCC1 [RIBOCICLIB] | > 30 µM (inactive)
C[C@@H](c1ccc2nccn2c1)n1nnc2ncc(-c3cnn(C)c3)nc21 [SAVOLITINIB] | > 30 µM (inactive)
O=C(Nc1cccc(Cl)c1)Nc1ncc(CCNc2ncnc3ccsc23)s1 [SNS-314] | > 30 µM (inactive)
Nc1nc(N)c2nc(-c3cccc(O)c3)c(-c3cccc(O)c3)nc2n1 [TG100-115] | 3.67 µM
COc1cc2nccc(Oc3ccc(NC(=O)Nc4cc(C)on4)c(Cl)c3)c2cc1OC [TIVOZANIB] | 1.35 µM (active)
CN1N=C(N)c2cn([C@@H]3O[C@H](COP(=O)(O)O)[C@@H](O)[C@H]3O)c3ncnc1c23 [TRICIRIBINE PHOSPHATE] | > 30 µM (inactive)

From ChEMBL document CHEMBL3991601, “The target landscape of clinical kinase drugs” (Science, 2017)
